Experimental data reported in PubChem BioAssay (NCI).
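At the GI50, growth is halved. At the TGI there is no net growth.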

Columns and labels:
Assay in all cases: DTP human tumour cell line panel, 384-well format
A498 renal = test system: A498 renal
ACHN renal = test system: ACHN renal
BT-549 breast = test system: BT-549 breast
CCRF-CEM leukemia = test system: CCRF-CEM leukemia
COLO 205 colon = test system: COLO 205 colon
IGROV1 ovarian = test system: IGROV1 ovarian
LOX IMVI melanoma = test system: LOX IMVI melanoma
NCI-H226 lung = test system: NCI-H226 lung
NCI-H23 lung = test system: NCI-H23 lung
NCI-H322M lung = test system: NCI-H322M lung
NCI-H522 lung = test system: NCI-H522 lung
OVCAR-4 ovarian = test system: OVCAR-4 ovarian
SR leukemia = test system: SR leukemia

SMILES	GI50 (A498 renal) [µM]	TGI (A498 renal) [µM]	GI50 (ACHN renal) [µM]	TGI (ACHN renal) [µM]	GI50 (BT-549 breast) [µM]	TGI (BT-549 breast) [µM]	GI50 (CCRF-CEM leukemia) [µM]	TGI (CCRF-CEM leukemia) [µM]	GI50 (COLO 205 colon) [µM]	TGI (COLO 205 colon) [µM]	GI50 (IGROV1 ovarian) [µM]	TGI (IGROV1 ovarian) [µM]	GI50 (LOX IMVI melanoma) [µM]	TGI (LOX IMVI melanoma) [µM]	GI50 (NCI-H226 lung) [µM]	TGI (NCI-H226 lung) [µM]	GI50 (NCI-H23 lung) [µM]	TGI (NCI-H23 lung) [µM]	GI50 (NCI-H322M lung) [µM]	TGI (NCI-H322M lung) [µM]	other results
CC1=C(c2cccc(O)c2)[C@H](c2ccc(OCCN3CC(CF)C3)cc2)Oc2ccc(O)cc21	2.28	6.48	11.1	23.2	3.24	12.6	2.11	4.88	3.09	8.69	4.88	16.9	1.77	3.34	6.19	19.4	7.02	19.6	6.69	19.6	GI50 (NCI-H522 lung): 11.1 µM; TGI (NCI-H522 lung): 23.1 µM; GI50 (OVCAR-4 ovarian): 5.79 µM; TGI (OVCAR-4 ovarian): 17.8 µM; GI50 (SR leukemia): 1.79 µM; TGI (SR leukemia): 3.23 µM
Cc1cc([N+](=O)[O-])c(NS(=O)(=O)c2cccc(C(=O)O)c2)cc1-c1cccnc1	> 100	> 100	> 100	> 100	> 100	> 100	> 100	> 100	> 100	> 100	> 100	> 100	> 100	> 100	> 100	> 100	> 100	> 100	> 100	> 100	GI50 (NCI-H522 lung): > 100 µM; TGI (NCI-H522 lung): > 100 µM; GI50 (OVCAR-4 ovarian): > 100 µM; TGI (OVCAR-4 ovarian): > 100 µM; GI50 (SR leukemia): > 61.5 µM; TGI (SR leukemia): > 100 µM
